# Reference: ChEMBL document CHEMBL1275440, “In vitro activity of telavancin against resistant gram-positive bacteria” (2008)
# Calls of active or inactive are those of the source. No cut-off for these calls is given here.
# Tests used:
# Type in all cases: functional
# [1] = tested on: Staphylococcus haemolyticus; assay: Antibacterial activity against methicillin resistant coagulase-negative Staphylococcus haemolyticus clinical isolate by broth microdilution method
# [2] = tested on: Streptococcus intermedius; assay: Antibacterial activity against Streptococcus intermedius clinical isolate by broth microdilution method
# Streptococcus mitis [3] = assay: Antibacterial activity against Streptococcus mitis clinical isolate by broth microdilution method
# Streptococcus pneumoniae [4] = assay: Antibacterial activity against penicillin intermediate Streptococcus pneumoniae clinical isolate by broth microdilution method
# Staphylococcus aureus [5] = assay: Antibacterial activity against methicillin resistant Staphylococcus aureus clinical isolate assessed as susceptibility level by broth microdilution method
# Streptococcus oralis [6] = assay: Antibacterial activity against Streptococcus oralis clinical isolate by broth microdilution method
# [7] = tested on: Streptococcus intermedius; assay: Antibacterial activity against Streptococcus intermedius clinical isolate assessed as susceptibility level by broth microdilution method
# Streptococcus pneumoniae [8] = assay: Antibacterial activity against penicillin intermediate Streptococcus pneumoniae clinical isolate assessed as susceptibility level by broth microdilution method
# Streptococcus agalactiae [9] = assay: Antibacterial activity against Streptococcus agalactiae group B clinical isolate assessed as susceptibility level by broth microdilution method
# Streptococcus agalactiae [10] = assay: Antibacterial activity against Streptococcus agalactiae group B clinical isolate by broth microdilution method
# [11] = tested on: Staphylococcus saprophyticus; assay: Antibacterial activity against methicillin resistant coagulase-negative Staphylococcus saprophyticus clinical isolate assessed as susceptibility level by broth microdilution method
# Streptococcus pneumoniae [12] = assay: Antibacterial activity against multidrug-resistant Streptococcus pneumoniae clinical isolate assessed as susceptibility level by broth microdilution method
# [13] = tested on: Streptococcus constellatus; assay: Antibacterial activity against Streptococcus constellatus clinical isolate by broth microdilution method
# [14] = tested on: Streptococcus constellatus; assay: Antibacterial activity against Streptococcus constellatus clinical isolate assessed as susceptibility level by broth microdilution method
# Streptococcus pneumoniae [15] = assay: Antibacterial activity against multidrug-resistant Streptococcus pneumoniae clinical isolate by broth microdilution method
# Streptococcus pneumoniae [16] = assay: Antibacterial activity against penicillin resistant Streptococcus pneumoniae clinical isolate by broth microdilution method
# Streptococcus viridans [17] = assay: Antibacterial activity against Streptococcus viridans clinical isolate assessed as susceptibility level by broth microdilution method
# [18] = tested on: Staphylococcus auricularis; assay: Antibacterial activity against methicillin resistant coagulase-negative Staphylococcus auricularis clinical isolate assessed as susceptibility level by broth microdilution method
# Staphylococcus capitis [19] = assay: Antibacterial activity against methicillin resistant coagulase-negative Staphylococcus capitis clinical isolate by broth microdilution method
# [20] = tested on: Staphylococcus haemolyticus; assay: Antibacterial activity against methicillin resistant coagulase-negative Staphylococcus haemolyticus clinical isolate assessed as susceptibility level by broth microdilution method
# [21] = tested on: Staphylococcus saprophyticus; assay: Antibacterial activity against methicillin resistant coagulase-negative Staphylococcus saprophyticus clinical isolate by broth microdilution method
# [22] = Antibacterial activity against methicillin resistant coagulase-negative Staphylococcus hominis subsp. novobiosepticus clinical isolate assessed as susceptibility level by broth microdilution method
# [23] = Antibacterial activity against methicillin resistant coagulase-negative Staphylococcus hominis subsp. novobiosepticus clinical isolate by broth microdilution method
# Staphylococcus capitis [24] = assay: Antibacterial activity against methicillin resistant coagulase-negative Staphylococcus capitis clinical isolate assessed as susceptibility level by broth microdilution method
# Streptococcus pyogenes [25] = assay: Antibacterial activity against Streptococcus pyogenes group A clinical isolate assessed as susceptibility level by broth microdilution method
# Streptococcus viridans [26] = assay: Antibacterial activity against Streptococcus viridans clinical isolate by broth microdilution method
# [27] = tested on: Staphylococcus auricularis; assay: Antibacterial activity against methicillin resistant coagulase-negative Staphylococcus auricularis clinical isolate by broth microdilution method
# Staphylococcus aureus [28] = assay: Antibacterial activity against methicillin resistant Staphylococcus aureus clinical isolate by broth microdilution method; conditions: for MIC50 / MIC90: Staphylococcus aureus
# [29] = tested on: Staphylococcus epidermidis; assay: Antibacterial activity against methicillin resistant Staphylococcus epidermidis clinical isolate assessed as susceptibility level by broth microdilution method
# Streptococcus mitis [30] = assay: Antibacterial activity against Streptococcus mitis clinical isolate assessed as susceptibility level by broth microdilution method
# Streptococcus pneumoniae [31] = assay: Antibacterial activity against penicillin resistant Streptococcus pneumoniae clinical isolate assessed as susceptibility level by broth microdilution method
# [32] = tested on: Staphylococcus epidermidis; assay: Antibacterial activity against methicillin resistant Staphylococcus epidermidis clinical isolate by broth microdilution method
# Streptococcus oralis [33] = assay: Antibacterial activity against Streptococcus oralis clinical isolate assessed as susceptibility level by broth microdilution method
# Streptococcus pyogenes [34] = assay: Antibacterial activity against Streptococcus pyogenes group A clinical isolate by broth microdilution method
structure (smiles),measurement,setting,value
CC[C@H]1OC(=O)[C@H](C)[C@@H](O[C@H]2C[C@@](C)(OC)[C@@H](O)[C@H](C)O2)[C@H](C)[C@@H](O[C@@H]2O[C@H](C)C[C@H](N(C)C)[C@H]2O)[C@](C)(O)C[C@@H](C)C(=O)[C@H](C)[C@@H](O)[C@]1(C)O [ERYTHROMYCIN],MIC50,[1],> 16 µg/mL
same,MIC90,[1],> 16 µg/mL
same,MIC,[2],≤ 0.015 µg/mL
same,MIC50,[2],inactive
same,MIC90,[2],inactive
same,MIC,Streptococcus mitis [3],≤ 0.015 µg/mL
same,MIC50,Streptococcus mitis [3],inactive
same,MIC90,Streptococcus mitis [3],inactive
same,MIC50,Streptococcus pneumoniae [4],> 1 µg/mL
same,MIC90,Streptococcus pneumoniae [4],> 1 µg/mL
same,Activity,Staphylococcus aureus [5],2%
same,MIC,Streptococcus oralis [6],≤ 0.015 µg/mL
same,MIC50,Streptococcus oralis [6],inactive
same,MIC90,Streptococcus oralis [6],inactive
same,Activity,[7],63%
same,Activity,Streptococcus pneumoniae [8],42%
same,Activity,Streptococcus agalactiae [9],62%
same,MIC50,Streptococcus agalactiae [10],0.06 µg/mL
same,MIC90,Streptococcus agalactiae [10],> 1 µg/mL
same,Activity,[11],18%
same,Activity,Streptococcus pneumoniae [12],13%
same,MIC,[13],≤ 0.015 µg/mL
same,MIC50,[13],inactive
same,MIC90,[13],inactive
same,Activity,[14],63%
same,MIC,Streptococcus pneumoniae [15],0.03 µg/mL
same,MIC,Streptococcus pneumoniae [16],0.03 µg/mL
same,Activity,Streptococcus viridans [17],63%
same,Activity,[18],18%
same,MIC50,Staphylococcus capitis [19],> 16 µg/mL
same,MIC90,Staphylococcus capitis [19],> 16 µg/mL
same,Activity,[20],18%
same,MIC50,[21],> 16 µg/mL
same,MIC90,[21],> 16 µg/mL
same,Activity,[22],18%
same,MIC50,[23],> 16 µg/mL
same,MIC90,[23],> 16 µg/mL
same,Activity,Staphylococcus capitis [24],18%
same,Activity,Streptococcus pyogenes [25],89%
same,MIC,Streptococcus viridans [26],≤ 0.015 µg/mL
same,MIC50,Streptococcus viridans [26],inactive
same,MIC90,Streptococcus viridans [26],inactive
same,MIC50,[27],> 16 µg/mL
same,MIC90,[27],> 16 µg/mL
same,Activity,Staphylococcus aureus [28],2%
same,MIC50,Staphylococcus aureus [28],> 16 µg/mL
same,MIC90,Staphylococcus aureus [28],> 16 µg/mL
same,Activity,[29],15%
same,Activity,Streptococcus mitis [30],63%
same,Activity,Streptococcus pneumoniae [31],20%
same,MIC50,[32],> 16 µg/mL
same,MIC90,[32],> 16 µg/mL
same,Activity,Streptococcus oralis [33],63%
same,MIC50,Streptococcus pyogenes [34],0.03 µg/mL
same,MIC90,Streptococcus pyogenes [34],> 1 µg/mL
CC[C@H]1OC(=O)[C@H](C)C(=O)[C@H](C)[C@@H](O[C@@H]2O[C@H](C)C[C@H](N(C)C)[C@H]2O)[C@](C)(OC)C[C@@H](C)C(=O)[C@H](C)[C@H]2N(CCCCn3cnc(-c4cccnc4)c3)C(=O)O[C@]12C [TELITHROMYCIN],MIC50,[1],> 8 µg/mL
same,MIC90,[1],> 8 µg/mL
same,MIC,[2],0.004 µg/mL
same,MIC50,[2],inactive
same,MIC90,[2],inactive
same,MIC,Streptococcus mitis [3],0.004 µg/mL
same,MIC50,Streptococcus mitis [3],inactive
same,MIC90,Streptococcus mitis [3],inactive
same,MIC50,Streptococcus pneumoniae [4],0.03 µg/mL
same,MIC90,Streptococcus pneumoniae [4],0.12 µg/mL
same,Activity,Staphylococcus aureus [5],83%
same,MIC,Streptococcus oralis [6],0.004 µg/mL
same,MIC50,Streptococcus oralis [6],inactive
same,MIC90,Streptococcus oralis [6],inactive
same,Activity,Streptococcus pneumoniae [8],100%
same,MIC50,Streptococcus agalactiae [10],0.015 µg/mL
same,MIC90,Streptococcus agalactiae [10],0.25 µg/mL
same,Activity,[11],29%
same,MIC,[13],0.004 µg/mL
same,MIC50,[13],inactive
same,MIC90,[13],inactive
same,MIC50,Streptococcus pneumoniae [15],0.06 µg/mL
same,MIC90,Streptococcus pneumoniae [15],0.5 µg/mL
same,MIC50,Streptococcus pneumoniae [16],0.06 µg/mL
same,MIC90,Streptococcus pneumoniae [16],0.5 µg/mL
same,Activity,[18],29%
same,MIC50,Staphylococcus capitis [19],> 8 µg/mL
same,MIC90,Staphylococcus capitis [19],> 8 µg/mL
same,Activity,[20],29%
same,MIC50,[21],> 8 µg/mL
same,MIC90,[21],> 8 µg/mL
same,Activity,[22],29%
same,MIC50,[23],> 8 µg/mL
same,MIC90,[23],> 8 µg/mL
same,Activity,Staphylococcus capitis [24],29%
same,MIC,Streptococcus viridans [26],0.004 µg/mL
same,MIC50,Streptococcus viridans [26],inactive
same,MIC90,Streptococcus viridans [26],inactive
same,MIC50,[27],> 8 µg/mL
same,MIC90,[27],> 8 µg/mL
same,Activity,Staphylococcus aureus [28],83%
same,MIC50,Staphylococcus aureus [28],0.25 µg/mL
same,MIC90,Staphylococcus aureus [28],16 µg/mL
same,Activity,[29],43%
same,MIC50,[32],0.5 µg/mL
same,MIC90,[32],> 8 µg/mL
same,MIC50,Streptococcus pyogenes [34],0.015 µg/mL
same,MIC90,Streptococcus pyogenes [34],0.015 µg/mL
